# How the values were obtained:
# [1] = Toxicity screening of surfactants by derived no-effect level (DNEL); details: derived from toxicological studies supplied by the surfactant manufacturer, with assessment factors
# Text: As referred to herein, a DNEL is substance specific and is commonly used as a health risk-based threshold in toxicological risk assessments. As a point of departure for the derivation of a DNEL varying toxicological studies are used, supplied by the surfactant manufacturer. […] Depending on evaluated endpoint and different parameters of these studies certain assessment factors are applied to derivate the DNEL. Used herein are scientifically justified and publicly recognized methods (e.g. by EFSA or ECETOC) for the determination of these assessment factors.
# Surfactants were screened for lower toxicity levels.
# [2] = Redeposition of ghee onto coupons; details: pH 11, 50° C., 1 g ghee in 600 g water, 10 minutes, FIG. 5
# Experimental: Each coupon was new and conditioned by soaking in methyl alcohol for 30 seconds, then placed in 60° C. oven for 30 minutes. 600 g of 0 grain water was heated in a 1000 ml beaker to 50° C. The pH of the mixture was adjusted to 11 using NaOH. The chemistry was added to the solution and mixed for one minute. Additionally, 1 g of melted ghee was added to the solution and mixed for one minute. Three cleaned and weighed coupons were added using a coupon holder. After 10 minutes, the coupons were removed and dipped in DI water once. Coupons were left to dry overnight and weighed the following day. […] Therefore, after the soil is removed it is less likely to be redeposited onto the surface again.
Substance,DNEL (derived no-effect level) [1],redeposition of butterfat onto coupons [2]
Nonylphenol ethoxylate [NPE],less than 1,
Alkyl polyglucosides [APGs],,helps prevent a larger amount of butterfat from being deposited

# Source: patent US20250188387A1, “LOW TOXICITY SURFACTANT BOOSTER COMPOSITIONS FOR FILTRATION MEMBRANE CLEANING APPLICATIONS” (ECOLAB USA INC., priority 2023, published 2025)
